Test results from ChEMBL document CHEMBL5226345, “Lactate dehydrogenase and malate dehydrogenase: Potential antiparasitic targets for drug development studies” (Bioorg Med Chem, 2021).
pIC50: −log10 of the molar value.

Experiments:
[1] = Inhibition of Plasmodium falciparum LDH
[2] = Inhibition of Plasmodium falciparum MDH
[3] = Inhibition of Plasmodium falciparum LDH by ELISA method
[4] = Inhibition of Schistosoma LDH
[5] = Inhibition of Toxoplasma gondii LDH2
[6] = Inhibition of Toxoplasma gondii LDH1
[7] = Inhibition of recombinant his tagged Cryptosporidium parvum LDH expressed in Escherichia coli by spectrophotometric based assay
[8] = Inhibition of Trichomonas vaginalis LDH

Structure (SMILES): COc1ccc(CNC(=O)C2=CC(=O)c3c(O)cc(OCCc4ccc(NC(=O)C(=O)O)c(C)c4)cc3C2)cc1
- pIC50 [1]: 5.76
- pIC50 [2]: 5.58

Structure (SMILES): CC[C@@H]([C@H](C)O)n1ncn(-c2ccc(N3CCN(c4ccc(OC[C@@H]5CO[C@@](Cn6cncn6)(c6ccc(F)cc6F)C5)cc4)CC3)cc2)c1=O [POSACONAZOLE]
- pIC50 [3]: 5.59

Structure (SMILES): CCC(C)n1ncn(-c2ccc(N3CCN(c4ccc(OCC5COC(Cn6cncn6)(c6ccc(Cl)cc6Cl)O5)cc4)CC3)cc2)c1=O (stereo not drawn) [ITRACONAZOLE]
- pIC50 [3]: 5.03

Structure (SMILES): O=C(C1CCCCC1)N1CC(=O)N2CCc3ccccc3C2C1 (stereo not drawn) [PRAZIQUANTEL]
- IC50 [4]: Not Active

Structure (SMILES): CCCc1c(O)c(O)c(C(=O)O)c2cc(Cc3ccccc3)c(C)cc12
- pIC50 [1]: 6.85
- pIC50 [5]: 6.05
- pIC50 [6]: 5.46
- pIC50 [7]: 4.40

Structure (SMILES): Cc1cc2c(C(C)C)c(O)c(O)c(C=O)c2c(O)c1-c1c(C)cc2c(C(C)C)c(O)c(O)c(C=O)c2c1O [GOSSYPOL]
- pIC50 [5]: 7.00
- pIC50 [6]: 6.15
- pIC50 [7]: 4.93

Structure (SMILES): O=C(CSc1ccccc1)Nc1cccc2ccccc12
- pIC50 [7]: 4.10

Structure (SMILES): O=C(Nc1ccccc1)c1nnn(-c2ccnc3cc(Cl)ccc23)c1-c1ccccc1
- pIC50 [8]: 4.00

Structure (SMILES): CC(C)c1c(C(=O)Nc2ccccc2)c(-c2ccccc2)c(-c2ccc(F)cc2)n1CC[C@@H](O)C[C@@H](O)CC(=O)O [ATORVASTATIN]
- pIC50 [3]: 4.88

Structure (SMILES): O=C1c2ccccc2C(=O)c2c(O)c(O)cc(O)c21 [PURPURIN]
- pIC50 [7]: 4.33

Structure (SMILES): NC(=O)C(=O)O [OXAMATE]
- pIC50 [2]: 5.58

Structure (SMILES): c1ccc2[nH]cnc2c1 [BENZIMIDAZOLE]
- IC50 [4]: Not Active
